Results taken from ChEMBL document CHEMBL1201862, “PubChem BioAssay data set” (2004).
Several values for one entry are separate records, joined by “and”; a condition that tells them apart may be missing. Identical values can stand only once.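 Each compound was tested at five concentrations against cells in 96-well plates for 48 hours. The concentration for 50% growth inhibition is given as GI50.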 Activity calls are given as the source filed them. Cut-off read from the data, not from the text of the source: active = GI50 up to about 1.1 µM and inactive = higher.

Assays:
Test in all cases: DTP human tumour cell line panel, 48 h
[1] = test system: HL-60
[2] = test system: U-251
[3] = test system: SK-MEL-5
[4] = test system: NCI-H522
[5] = test system: PC-3
[6] = test system: MDA-MB-435
[7] = test system: SF-539
[8] = test system: SW-620
[9] = test system: OVCAR-5
[10] = test system: UO-31
[11] = test system: IGROV-1
[12] = test system: MOLT-4
[13] = test system: SF-295
[14] = test system: SK-OV-3
[15] = test system: SK-MEL-2
[16] = test system: OVCAR-3
[17] = test system: NCI-H226
[18] = test system: K562
[19] = test system: RPMI-8226
[20] = test system: SR

Measured: GI50

Cc1ccc(NC(=O)/C(CC2Nc3c(ccc4c3C(=O)c3ccccc3C4=O)NC2O)=N/NC(C)(C)C)cc1 (centres undefined)
inactive: [1] 3.97 µM | [2] 14.1 µM | [3] 5.6 µM | [4] 15.9 µM | [5] 15.8 µM | [6] 17.7 µM | [7] 7.59 µM | [8] 9.68 µM | [9] 26.5 µM | [10] 3.7 µM | [11] 8.07 µM | [12] 2.37 µM | [13] 27.9 µM | [14] 12.8 µM | [15] 18.9 µM | [16] 18.7 µM

O=C(/C=C/c1ccccc1)c1ccccn1
inactive: [2] 14.3 µM and 17.9 µM | [3] 14 µM and 26.1 µM | [4] 17.8 µM and 15.1 µM | [5] 19.1 µM and 21.1 µM | [6] 26.5 µM and 18.9 µM | [7] 17.8 µM | [8] 18.7 µM and 29.8 µM | [10] 17.3 µM and 20.6 µM | [11] 10.5 µM and 17.4 µM | [12] 23.8 µM | [13] 24 µM and 18.4 µM | [14] 27.4 µM and 38.5 µM | [15] 19.2 µM | [16] 12.7 µM and 16.4 µM | [17] 16.6 µM and 26.7 µM

O=C1c2ccccc2-c2c1c(-c1ccccc1)c1n2C2(C(=O)c3ccccc3C2=O)C2C(=O)N(c3ccccc3)C(=O)C12 (centres undefined)
inactive: [2] 35.9 µM | [3] 18.2 µM | [4] 12.9 µM | [5] 26.6 µM | [6] 19.8 µM | [7] 15.4 µM | [8] 31.5 µM | [9] 17.4 µM | [10] 28.4 µM | [11] 32.3 µM | [12] 40.6 µM | [13] 34.4 µM | [14] 41.9 µM | [15] 22.6 µM | [16] 24.3 µM | [17] 19.3 µM

COc1cccc(NC(=O)C(C#N)=C(SC)SC)c1
inactive: [18] > 100 µM | [2] > 100 µM | [3] 41.8 µM | [4] 30.4 µM | [5] > 100 µM | [6] > 100 µM | [7] > 100 µM | [8] > 100 µM | [9] > 100 µM | [11] > 100 µM | [12] 62.2 µM | [13] > 100 µM | [14] > 100 µM | [15] > 100 µM | [17] > 100 µM

[O-][S+]1c2ccccc2SCSc2ccccc21
inactive: [19] 18.2 µM | [18] 16.7 µM | [2] > 100 µM | [3] 76.6 µM | [4] > 100 µM | [5] > 100 µM | [7] > 100 µM | [9] > 100 µM | [10] > 100 µM | [20] 46.2 µM | [12] 66.5 µM | [13] > 100 µM | [14] > 100 µM | [15] > 100 µM | [16] > 100 µM

COc1ccc(-n2c(CCCC(=O)O)nc3c2C(=O)c2ccccc2C3=O)cc1
inactive: [1] 31.1 µM | [19] 36.3 µM | [18] 47.3 µM | [2] > 100 µM | [4] 25.8 µM | [6] 26.4 µM | [7] > 100 µM | [8] 56.9 µM | [9] > 100 µM | [10] > 100 µM | [20] 66.8 µM | [11] 79.3 µM | [12] 68.1 µM | [13] 43 µM | [14] > 100 µM | [15] 84.7 µM | [16] 33.3 µM
